In brackets after ≈: the same amount, converted by molar mass. Where two headings read alike, the source gives them in different places.
Assays:
Test in all cases: MIC (Minimum Inhibitory Concentration)
Format in all cases: cell-based
[1] = system: Candida albicans
Text: (§1) In addition they may be used for combatting plant diseases, in particular as fungicides. A list of MIC (Minimum Inhibitory Concentration) values for a number of microorganisms is listed herebelow. The figures in the column headings refer to the compounds prepared according to the experimental examples in comparison with the spectrum of 1-[2-(2,4-dichlorophenyl)-2-{(2,4-dichlorophenyl)-methoxy} -ethyl7-1H-imidazole (better known under the name of miconazole, c.f. Merck Index 9th Ed. page 6047) or natamycin (pimaricin, c.f. Merck Index 9th Ed. page 7233).

[2] = system: Pasteurella multocida; settings: Pasteurella multocida A 723; read-out: MIC values
Text: as §1

[3] = system: Streptococcus haemolyticus; settings: Streptococcus haemolyticus A 1088; read-out: MIC values
Text: as §1

[4] = system: Trichophyton equinum
Text: as §1

[5] = system: Trichophyton mentagrophytus
Text: as §1

[6] = system: Trichophyton quickeaneum; settings: Trichophyton quickeaneum A 2040; read-out: MIC values
Text: as §1

[7] = system: Trichophyton rubrum
Text: as §1

[8] = system: Trichophyton schoenleinii; settings: Trichophyton schoenleinii 435-63; read-out: MIC values
Text: as §1

[9] = system: Trichophyton tonsurans; settings: Trichophyton tonsurans 561-50; read-out: MIC values
Text: as §1

[10] = system: Trichophyton violoceum; settings: Trichophyton violoceum 442-62; read-out: MIC values
Text: as §1

[11] = Candida albicans A 7, read-out: MIC values
[12] = Candida albicans A 3140, read-out: MIC values
[13] = Candida albicans A 3141, read-out: MIC values
[14] = Candida albicans A 3142, read-out: MIC values
[15] = Candida albicans A 3143, read-out: MIC values
[16] = Candida albicans A 3144, read-out: MIC values
[17] = Candida albicans A 3145, read-out: MIC values
[18] = Candida albicans A 3165, read-out: MIC values
[19] = Candida albicans A 3166, read-out: MIC values
[20] = Candida albicans A 3167, read-out: MIC values
[21] = Candida albicans A 3168, read-out: MIC values
[22] = Candida albicans A 3169, read-out: MIC values
[23] = Candida albicans A 3171, read-out: MIC values
[24] = Candida albicans A 3184, read-out: MIC values
[25] = Candida albicans A 3190, read-out: MIC values
[26] = Candida albicans A 3191, read-out: MIC values
[27] = Candida albicans A 3192, read-out: MIC values
[28] = Candida albicans A 3194, read-out: MIC values
[29] = Candida albicans A 3196, read-out: MIC values
[30] = Trichophyton equinum 182-76, read-out: MIC values
[31] = Trichophyton equinum 856-71, read-out: MIC values
[32] = Trichophyton mentagrophytus 367-68, read-out: MIC values
[33] = Trichophyton mentagrophytus 421-67, read-out: MIC values
[34] = Trichophyton mentagrophytus A 3252, read-out: MIC values
[35] = Trichophyton mentagrophytus R 177, read-out: MIC values
[36] = Trichophyton mentagrophytus R 178, read-out: MIC values
[37] = Trichophyton mentagrophytus RRL 305, read-out: MIC values
[38] = Trichophyton rubrum 218-65, read-out: MIC values
[39] = Trichophyton rubrum 494-62, read-out: MIC values
[40] = Trichophyton rubrum A 810, read-out: MIC values

| SMILES | MIC [1, 11] | MIC [1, 12] | MIC [1, 13] | MIC [1, 14] | MIC [1, 15] | MIC [1, 16] | MIC [1, 17] | MIC [1, 18] | MIC [1, 19] | MIC [1, 20] | MIC [1, 21] | MIC [1, 22] | MIC [1, 23] | MIC [1, 24] | MIC [1, 25] | MIC [1, 26] | MIC [1, 27] | MIC [1, 28] | MIC [1, 29] | MIC [2] | also measured |
| --- | --- | --- | --- | --- | --- | --- | --- | --- | --- | --- | --- | --- | --- | --- | --- | --- | --- | --- | --- | --- | --- |
| [C-]#[N+]C(=C(C)c1ccccc1)S(=O)(=O)c1ccc(C)cc1 [Example 12, 2-phenyl-1-isocyano-1-(4-toluenesulphonyl)-1-propene] | 3 µg/mL (≈ 10.1 µM) | 6 µg/mL (≈ 20.2 µM) | 6 µg/mL (≈ 20.2 µM) | 6 µg/mL (≈ 20.2 µM) | 6 µg/mL (≈ 20.2 µM) | 3 µg/mL (≈ 10.1 µM) | 3 µg/mL (≈ 10.1 µM) | 3 µg/mL (≈ 10.1 µM) | 3 µg/mL (≈ 10.1 µM) | 3 µg/mL (≈ 10.1 µM) | 6 µg/mL (≈ 20.2 µM) | 6 µg/mL (≈ 20.2 µM) | 6 µg/mL (≈ 20.2 µM) | 6 µg/mL (≈ 20.2 µM) | 6 µg/mL (≈ 20.2 µM) | 6 µg/mL (≈ 20.2 µM) | 3 µg/mL (≈ 10.1 µM) | 3 µg/mL (≈ 10.1 µM) | 6 µg/mL (≈ 20.2 µM) | 3 µg/mL (≈ 10.1 µM) | MIC [3]: 50 µg/mL (≈ 168 µM); MIC [4, 30]: 12.5 µg/mL (≈ 42 µM); MIC [4, 31]: 6 µg/mL (≈ 20.2 µM); MIC [5, 32]: 12.5 µg/mL (≈ 42 µM); MIC [5, 33]: 6 µg/mL (≈ 20.2 µM); MIC [5, 34]: 6 µg/mL (≈ 20.2 µM); MIC [5, 35]: 3 µg/mL (≈ 10.1 µM); MIC [5, 36]: 6 µg/mL (≈ 20.2 µM); MIC [5, 37]: 25 µg/mL (≈ 84.1 µM); MIC [6]: 6 µg/mL (≈ 20.2 µM); MIC [7, 38]: 3 µg/mL (≈ 10.1 µM); MIC [7, 39]: 6 µg/mL (≈ 20.2 µM); MIC [7, 40]: 3 µg/mL (≈ 10.1 µM); MIC [8]: 1.5 µg/mL (≈ 5.04 µM); MIC [9]: 0.1 µg/mL (≈ 0.336 µM); MIC [10]: 3 µg/mL (≈ 10.1 µM) |
| [C-]#[N+]C(C1=CCSCC1)S(=O)(=O)c1ccc(C)cc1 (stereo not drawn) [Example 16b, a-(3,4-dehydrothian-4-yl)-a-(4-toluenesulphonyl)-methylisocyanide] | 3 µg/mL (≈ 10.2 µM) | 3 µg/mL (≈ 10.2 µM) | 3 µg/mL (≈ 10.2 µM) | 3 µg/mL (≈ 10.2 µM) | 3 µg/mL (≈ 10.2 µM) | 6 µg/mL (≈ 20.4 µM) | 6 µg/mL (≈ 20.4 µM) | 3 µg/mL (≈ 10.2 µM) | 3 µg/mL (≈ 10.2 µM) | 3 µg/mL (≈ 10.2 µM) | 3 µg/mL (≈ 10.2 µM) | 3 µg/mL (≈ 10.2 µM) | 3 µg/mL (≈ 10.2 µM) | 3 µg/mL (≈ 10.2 µM) | 3 µg/mL (≈ 10.2 µM) | 6 µg/mL (≈ 20.4 µM) | 3 µg/mL (≈ 10.2 µM) | 3 µg/mL (≈ 10.2 µM) | 3 µg/mL (≈ 10.2 µM) | 3 µg/mL (≈ 10.2 µM) | MIC [3]: 50 µg/mL (≈ 170 µM); MIC [4, 30]: 6 µg/mL (≈ 20.4 µM); MIC [4, 31]: 12.5 µg/mL (≈ 42.6 µM); MIC [5, 32]: 6 µg/mL (≈ 20.4 µM); MIC [5, 33]: 6 µg/mL (≈ 20.4 µM); MIC [5, 34]: 12.5 µg/mL (≈ 42.6 µM); MIC [5, 35]: 6 µg/mL (≈ 20.4 µM); MIC [5, 36]: 12.5 µg/mL (≈ 42.6 µM); MIC [5, 37]: 12.5 µg/mL (≈ 42.6 µM); MIC [6]: 6 µg/mL (≈ 20.4 µM); MIC [7, 38]: 1.5 µg/mL (≈ 5.11 µM); MIC [7, 39]: 12.5 µg/mL (≈ 42.6 µM); MIC [7, 40]: 1.5 µg/mL (≈ 5.11 µM); MIC [8]: 1.5 µg/mL (≈ 5.11 µM); MIC [9]: 0.8 µg/mL (≈ 2.73 µM); MIC [10]: 3 µg/mL (≈ 10.2 µM) |
